Source: US12655116B2, “Substituted isophthalic acid diamides” (Bayer Aktiengesellschaft, priority 2020, dated 2026)

What was measured:
MATIN [1] = test: Post-emergence herbicidal action against MATIN; type: in vivo, Matricaria inodora; settings: Tripleurospermum inodorum, 504 h; for pest or weed control at 20 g/ha: dosage 20 g/ha
Method in brief: (§1)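 Sandy loam, greenhouse; treatment 2–3 weeks after sowing, one-leaf stage. Aqueous suspension or emulsion from WP/EC sprayed on foliage (600–800 l/ha, 0.2% wetting agent). Readout: visual % action, ~3 weeks.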

ECHCG [2] = test: Post-emergence herbicidal action against ECHCG; type: in vivo, Echinochloa crus-galli; settings: Echinochloa crus-galli, 504 h; for pest or weed control at 5 g/ha: dosage 5 g/ha; for pest or weed control at 20 g/ha: dosage 20 g/ha
Method in brief: as §1

POLCO = test: Pre-emergence herbicidal action against POLCO; type: in vivo, Polygonum convolvulus; settings: Fallopia convolvulus, 504 h; for pest or weed control at 80 g/ha: dosage 80 g/ha
Method in brief: (§2)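 Seeds sown in sandy loam, soil-covered; compound sprayed on soil surface pre-emergence. Application: WP/EC, 600–800 l/ha, 0.2% wetting agent. Readout: visual % damage at 3 weeks.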

VIOTR [3] = test: Post-emergence herbicidal action against VIOTR; type: in vivo, Viola tricolor; settings: Viola tricolor, 504 h
Method in brief: as §1

VERPE [4] = test: Post-emergence herbicidal action against VERPE; type: in vivo, Veronica persica; settings: Veronica persica, 504 h
Method in brief: as §1

ABUTH [5] = test: Post-emergence herbicidal action against ABUTH; type: in vivo, Abutilon theophrasti; settings: Abutilon theophrasti, 504 h, visual assessment about 3 weeks after treatment vs untreated controls; for pest or weed control at 5 g/ha: dosage 5 g/ha; for pest or weed control at 20 g/ha: dosage 20 g/ha
Method in brief: as §1

ECHCG [6] = test: Pre-emergence herbicidal action against ECHCG; type: in vivo, Echinochloa crus-galli; settings: Echinochloa crus-galli, 504 h, 80 g/ha
Method in brief: as §2

AVEFA = test: Pre-emergence herbicidal action against AVEFA; type: in vivo, Avena fatua; settings: Avena fatua, 504 h; 80 g/ha, pre-emergence
Method in brief: as §2

MATIN [7] = test: Pre-emergence herbicidal action against MATIN; type: in vivo, Matricaria inodora; settings: Tripleurospermum inodorum, 504 h; for pest or weed control at 20 g/ha: dosage 20 g/ha; for pest or weed control at 80 g/ha: dosage 80 g/ha
Method in brief: as §2

VERPE [8] = test: Pre-emergence herbicidal action against VERPE; type: in vivo, Veronica persica; settings: Veronica persica, 504 h, dosage 80 g/ha
Method in brief: as §2

PHBPU [9] = test: Post-emergence herbicidal action against PHBPU; type: in vivo, Pharbitis purpurea; settings: Ipomoea purpurea, 504 h; for pest or weed control at 20 g/ha: dosage 20 g/ha
Method in brief: as §1

VIOTR [10] = test: Pre-emergence herbicidal action against VIOTR; type: in vivo, Viola tricolor; settings: Viola tricolor, 504 h; for pest or weed control at 20 g/ha: dosage 20 g/ha; for pest or weed control at 80 g/ha: dosage 80 g/ha
Method in brief: as §2

SETVI [11] = test: Post-emergence herbicidal action against SETVI; type: in vivo, Setaria viridis; settings: Setaria viridis, 504 h; for pest or weed control at 5 g/ha: dosage 5 g/ha; for pest or weed control at 20 g/ha: dosage 20 g/ha
Method in brief: as §1

ABUTH [12] = test: Pre-emergence herbicidal action against ABUTH; type: in vivo, Abutilon theophrasti; settings: Abutilon theophrasti, 504 h; for pest or weed control at 80 g/ha: scored visually after 3 weeks vs untreated controls (100% = plants have died, 0% = like control plants)
Method in brief: as §2

DIGSA [13] = test: Post-emergence herbicidal action against DIGSA; type: in vivo, Digitaria sanguinalis; settings: Digitaria sanguinalis, 504 h
Method in brief: as §1

AMARE [14] = test: Post-emergence herbicidal action against AMARE; type: in vivo, Amaranthus retroflexus; settings: Amaranthus retroflexus, 504 h, 20 g/ha, visual assessment about 3 weeks after treatment, 100% = plants have died, 0% = like control plants
Method in brief: as §1

AMARE [15] = test: Pre-emergence herbicidal action against AMARE; type: in vivo, Amaranthus retroflexus; settings: Amaranthus retroflexus, 504 h, scored visually after 3 weeks vs untreated controls, 100% = plants have died, 0% = like control plants
Method in brief: as §2

ALOMY = test: Pre-emergence herbicidal action against ALOMY; type: in vivo, Alopecurus myosuroides; settings: Alopecurus myosuroides, 504 h; 80 g/ha, pre-emergence, scored visually after 3 weeks vs untreated controls (100% = plants have died, 0% = like control plants)
Method in brief: as §2

PHBPU [16] = test: Pre-emergence herbicidal action against PHBPU; type: in vivo, Pharbitis purpurea; settings: Ipomoea purpurea, 504 h; for pest or weed control at 80 g/ha: dosage 80 g/ha
Method in brief: as §2

SETVI [17] = test: Pre-emergence herbicidal action against SETVI; type: in vivo, Setaria viridis; settings: Setaria viridis, 504 h; for pest or weed control at 20 g/ha: dosage 20 g/ha; for pest or weed control at 80 g/ha: dosage 80 g/ha
Method in brief: as §2

DIGSA [18] = test: Pre-emergence herbicidal action against DIGSA; type: in vivo, Digitaria sanguinalis; settings: Digitaria sanguinalis, 504 h; for pest or weed control at 80 g/ha: dosage 80 g/ha
Method in brief: as §2

Structure (SMILES) | pest or weed control at 20 g/ha (MATIN [1]) | pest or weed control at 5 g/ha (ECHCG [2]) | pest or weed control at 20 g/ha (ECHCG [2]) | pest or weed control at 80 g/ha (POLCO) | pest or weed control at 5 g/ha (VIOTR [3]) | pest or weed control at 20 g/ha (VIOTR [3]) | pest or weed control at 20 g/ha (VERPE [4]) | pest or weed control at 5 g/ha (ABUTH [5]) | pest or weed control at 20 g/ha (ABUTH [5]) | pest or weed control at 80 g/ha (ECHCG [6]) | pest or weed control at 80 g/ha (AVEFA) | pest or weed control at 20 g/ha (MATIN [7]) | pest or weed control at 80 g/ha (MATIN [7]) | pest or weed control at 80 g/ha (VERPE [8]) | pest or weed control at 20 g/ha (PHBPU [9]) | pest or weed control at 20 g/ha (VIOTR [10]) | pest or weed control at 80 g/ha (VIOTR [10]) | pest or weed control at 5 g/ha (SETVI [11]) | pest or weed control at 20 g/ha (SETVI [11]) | pest or weed control at 80 g/ha (ABUTH [12]) | further results
CNC(=O)c1c(C(F)(F)F)ccc(C(=O)Nc2nnnn2C)c1OC [Example 1-56] | 90% | 80% | 90% | 90% | 100% | 100% | 90% | 80% | 100% | 90% | 80% | 90% | 90% | 90% | 80% | 100% | 100% | 100% | 100% | 90% | pest or weed control at 5 g/ha (DIGSA [13]): 90%; pest or weed control at 20 g/ha (DIGSA [13]): 100%; pest or weed control at 20 g/ha (AMARE [14]): 100%; pest or weed control at 20 g/ha (AMARE [15]): 100%; pest or weed control at 80 g/ha (AMARE [15]): 100%; pest or weed control at 80 g/ha (ALOMY): 90%; pest or weed control at 20 g/ha (PHBPU [16]; dosage 20 g/ha): 80%; pest or weed control at 80 g/ha (PHBPU [16]): 80%; pest or weed control at 20 g/ha (SETVI [17]): 90%; pest or weed control at 80 g/ha (SETVI [17]): 100%; pest or weed control at 80 g/ha (DIGSA [18]): 80%
CCc1c(C(=O)Nc2nnnn2C)ccc(C(F)F)c1C(=O)NC1CC1 [Example 1-279] | 90% | 80% | 90% | 90% | 90% | 90% | 100% | 80% | 90% | 100% | 90% | 100% | 100% | 90% | 90% | 100% | 100% | 90% | 90% | 100% | pest or weed control at 5 g/ha (MATIN [1]; dosage 5 g/ha): 90%; pest or weed control at 20 g/ha (POLCO; dosage 20 g/ha): 80%; pest or weed control at 5 g/ha (VERPE [4]; 5 g/ha): 80%; pest or weed control at 5 g/ha (PHBPU [9]; dosage 5 g/ha): 90%; pest or weed control at 20 g/ha (ABUTH [12]; dosage 20 g/ha, scored visually after 3 weeks vs untreated controls, 100% = plants have died, 0% = like control plants, read-out: Pre-emergence action against ABUTH (herbicidal activity in percent)): 100%; pest or weed control at 5 g/ha (DIGSA [13]): 90%; pest or weed control at 20 g/ha (DIGSA [13]): 90%; pest or weed control at 20 g/ha (AMARE [14]): 100%; pest or weed control at 20 g/ha (AMARE [15]): 100%; pest or weed control at 80 g/ha (AMARE [15]): 100%; pest or weed control at 80 g/ha (ALOMY): 80%; pest or weed control at 80 g/ha (PHBPU [16]): 90%; pest or weed control at 20 g/ha (SETVI [17]): 80%; pest or weed control at 80 g/ha (SETVI [17]): 100%; pest or weed control at 20 g/ha (DIGSA [18]; dosage 20 g/ha): 100%; pest or weed control at 80 g/ha (DIGSA [18]): 100%
